The values that follow come from ChEMBL document CHEMBL1201862, “PubChem BioAssay data set” (2004).

Test systems include CAKI-1; HOP-62; HOP-92; IGROV-1; M14; NCI-H226; NCI-H23; NCI-H522; OVCAR-4; OVCAR-5; RPMI-8226; SF-295; SF-539; SK-MEL-2; SK-MEL-5; SW-620; UO-31; UACC-62.
Assay in all cases: NCI-60 cell line screen, 48 h

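Where inhibition never reached the appropriate level, the endpoint shown equals the highest concentration tested. Otherwise, values were interpolated linearly from a five-concentration, 48-hour dose response in 96-well plates. The concentration for 50% growth inhibition is given as GI50.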 Activity calls are given as the source filed them. No stated cut-off is given here; in the data, active = GI50 up to about 1.1 µM and inactive = higher.

In the case of `COc1ccccc1NC(=O)C(CC(C(=O)Nc1ccccc1OC)/C(C)=N/NC(=O)c1ccccc1O)/C(C)=N/NC(=O)c1ccccc1O` (stereo unspecified), the GI50 in the assay with CAKI-1 was 67 µM (inactive); in the assay with HOP-62, > 100 µM (inactive); in the assay on HOP-92, 26 µM (inactive); in the assay with IGROV-1, > 100 µM (inactive); with M14 it was > 100 µM (inactive); with NCI-H226 it was 60.3 µM (inactive). The GI50 with NCI-H23 was > 100 µM (inactive); in the assay on NCI-H522 it was 64.4 µM (inactive); in the assay on OVCAR-4 it was 51.8 µM (inactive); in the assay with OVCAR-5, > 100 µM (inactive); with RPMI-8226, 59.8 µM (inactive); in the assay with SF-295, 59.7 µM (inactive). The GI50 was 54.2 µM (inactive) in the assay with SF-539; > 100 µM (inactive) with SK-MEL-2; 47 µM (inactive) with SK-MEL-5; 88.5 µM (inactive) in the assay with SW-620; 40.4 µM (inactive) with UO-31.
For the compound `COC(OC)[C@@H](C)[C@H](O)[C@](C)(O)C1OC(C)(C)OC(C(C)C=C(C)C)C1C` (stereo partly specified), the GI50 in the assay with CAKI-1, with HOP-62, in the assay with HOP-92, in the assay with IGROV-1, with M14 and in the assay on NCI-H226 was > 100 µM (inactive) throughout. Also, the GI50 is > 100 µM (inactive) in the assay with NCI-H23; > 100 µM (inactive) in the assay with NCI-H522; > 100 µM (inactive) in the assay with OVCAR-4; > 100 µM (inactive) in the assay with OVCAR-5; 48.6 µM (inactive) with RPMI-8226; > 100 µM (inactive) in the assay with SF-295. Also, the GI50 was > 100 µM (inactive) in the assay on SF-539; > 100 µM (inactive) in the assay on SK-MEL-2; 64.9 µM (inactive) in the assay on SK-MEL-5; > 100 µM (inactive) in the assay with SW-620; > 100 µM (inactive) in the assay on UACC-62; 80.7 µM (inactive) in the assay on UO-31.
Take `CSc1ccc2c(cc1=O)[C@@H](NC(=O)c1ccc(F)cc1)CCc1cc(O)c(O)c(O)c1-2`: the GI50 was > 100 µM (inactive) with CAKI-1; > 100 µM (inactive) in the assay on HOP-62; 84.9 µM (inactive) in the assay on HOP-92; > 100 µM (inactive) with IGROV-1; > 100 µM (inactive) in the assay on M14; > 100 µM (inactive) with NCI-H226. The GI50 in the assay with NCI-H23, with NCI-H522, in the assay on OVCAR-4, in the assay on OVCAR-5, with RPMI-8226 and in the assay with SF-295 was > 100 µM (inactive) each time. The GI50 in the assay on SF-539, with SK-MEL-2, in the assay with SK-MEL-5, in the assay with SW-620, with UACC-62 and with UO-31 was > 100 µM (inactive) in each case.
Regarding `CCCCCCCCCCCCCCCCP(=O)(OC)OC`, the GI50 was 16.6 µM (inactive) in the assay with CAKI-1; 12 µM (inactive) with HOP-62; 16.4 µM (inactive) in the assay with HOP-92; 16.7 µM (inactive) in the assay with IGROV-1; 16.3 µM (inactive) with M14; 17.1 µM (inactive) with NCI-H226. The GI50 in the assay with NCI-H23 is 16.5 µM (inactive); in the assay with NCI-H522, 13.5 µM (inactive); in the assay with OVCAR-4, 20.7 µM (inactive); with OVCAR-5 it was 13.9 µM (inactive); with RPMI-8226 it was 13.2 µM (inactive); in the assay with SF-295 it was 18 µM (inactive). Further, the GI50 in the assay with SF-539 was 20.6 µM (inactive); in the assay with SK-MEL-2, 16.4 µM (inactive); in the assay on SK-MEL-5, 16.4 µM (inactive); in the assay with SW-620 it was 14.7 µM (inactive); in the assay on UACC-62, 14.6 µM (inactive); in the assay with UO-31 it was 11.7 µM (inactive).
In the case of `CCc1cccc(C(C)CC)c1NC(=O)C(=O)C(CC(=O)Nc1ccc(Cl)c(Cl)c1)C(=O)OC` (stereo unspecified), the GI50 in the assay on CAKI-1 was 19.5 µM (inactive); in the assay on HOP-62, 71.1 µM (inactive); with HOP-92 it was 16.7 µM (inactive); in the assay on IGROV-1 it was > 100 µM (inactive); with M14 it was 57.1 µM (inactive); in the assay with NCI-H226, > 100 µM (inactive). In addition, the GI50 was > 100 µM (inactive) in the assay with NCI-H23; 38.5 µM (inactive) with NCI-H522; > 100 µM (inactive) with OVCAR-4; > 100 µM (inactive) in the assay with OVCAR-5; 43.4 µM (inactive) in the assay with RPMI-8226; 30.4 µM (inactive) with SF-295. The GI50 is > 100 µM (inactive) in the assay on SF-539; > 100 µM (inactive) with SK-MEL-2; 46.7 µM (inactive) in the assay on SW-620; 3.59 µM (inactive) with UACC-62; 73.1 µM (inactive) with UO-31.
`O=c1[nH]c2cc([N+](=O)[O-])ccc2nc1/C(=N/Nc1ccccc1)C(O)c1ccccc1Cl` (stereo unspecified): the GI50 in the assay with HOP-62 is 62.5 µM (inactive); in the assay on HOP-92, > 100 µM (inactive); in the assay on IGROV-1 it was 43.9 µM (inactive); in the assay on M14, 47.3 µM (inactive); in the assay with NCI-H226, 80.2 µM (inactive); in the assay on NCI-H23, 90.8 µM (inactive). In addition, the GI50 in the assay with NCI-H522 was 4.68 µM (inactive); in the assay on OVCAR-4 it was 79.8 µM (inactive); in the assay on OVCAR-5, 95.5 µM (inactive); in the assay on RPMI-8226, 52.4 µM (inactive); in the assay on SF-295, 43.3 µM (inactive); in the assay with SF-539 it was 44.9 µM (inactive). Moreover, the GI50 with SK-MEL-2 was > 100 µM (inactive); in the assay with SK-MEL-5, 33 µM (inactive); in the assay on SW-620, 41.9 µM (inactive); in the assay with UACC-62 it was 11.2 µM (inactive); in the assay on UO-31 it was 21.1 µM (inactive).
For `CCCCCCn1c(SCC)c2ccccc2c1-c1nc(F)nc(F)n1`, the GI50 in the assay with CAKI-1, in the assay on HOP-62, in the assay on HOP-92, in the assay on IGROV-1, in the assay on M14 and with NCI-H226 was > 100 µM (inactive) throughout. In addition, the GI50 with NCI-H23, in the assay with NCI-H522, in the assay with OVCAR-4, in the assay with OVCAR-5, in the assay with RPMI-8226 and in the assay on SF-295 was > 100 µM (inactive) each time. In addition, the GI50 in the assay on SF-539, in the assay on SK-MEL-2, in the assay on SK-MEL-5, in the assay with SW-620 and in the assay on UO-31 was > 100 µM (inactive) in each case.
For the compound `CCOC(=O)C(=O)Nc1c(F)cc(F)cc1Br`, the GI50 in the assay with CAKI-1, with HOP-62, in the assay with HOP-92, in the assay with IGROV-1, with M14 and with NCI-H226 was > 100 µM (inactive) throughout. For the same compound, the GI50 with NCI-H23, in the assay with OVCAR-4, with OVCAR-5, in the assay on RPMI-8226, with SF-295 and with SF-539 was > 100 µM (inactive) in each case. Besides, the GI50 in the assay with SK-MEL-2, in the assay with SK-MEL-5, in the assay on SW-620, in the assay with UACC-62 and with UO-31 was > 100 µM (inactive) each time.
For the compound `O=C1/C(=C/c2ccccc2)CN(C(=O)Oc2ccc([N+](=O)[O-])cc2)C/C1=C\c1ccccc1`, the GI50 is > 10 µM (inactive) in the assay with CAKI-1; > 10 µM (inactive) in the assay with HOP-62; > 10 µM (inactive) with HOP-92; 6.84 µM (inactive) in the assay on IGROV-1; 0.908 µM (active) in the assay with M14; > 10 µM (inactive) in the assay on NCI-H226. Also, the GI50 is 7.76 µM (inactive) in the assay with NCI-H23; 3.18 µM (inactive) with NCI-H522; 2.56 µM (inactive) in the assay with OVCAR-4; > 10 µM (inactive) in the assay on OVCAR-5; 0.0551 µM (active) in the assay with RPMI-8226; 1.33 µM (inactive) in the assay on SF-295. Moreover, the GI50 in the assay with SF-539 is 9.42 µM (inactive); in the assay on SK-MEL-2 it was 14.2 µM (inactive); with SK-MEL-5, 3.64 µM (inactive); in the assay on SW-620, 0.59 µM (active); in the assay on UACC-62 it was 2.41 µM (inactive); in the assay on UO-31, 9.77 µM (inactive).
Turning to `CC(=O)OCC1OC(OC2CC3C(C)(C)C(OC(C)=O)CC[C@]3(C)C3CCC45CC4(CC[C@H]5C(C)CC(O)C4OC4(C)C)[C@]23C)C(O)C(O)C1O` (stereo partly specified), the GI50 was 4.32 µM (inactive) in the assay on CAKI-1; 5.56 µM (inactive) with HOP-62; 2.25 µM (inactive) in the assay on HOP-92; 0.0715 µM (active) in the assay on IGROV-1; 2.03 µM (inactive) in the assay with M14; 5.06 µM (inactive) in the assay on NCI-H226. The GI50 was 2.86 µM (inactive) in the assay on NCI-H23; 1.59 µM (inactive) in the assay on NCI-H522; 1.48 µM (inactive) in the assay with OVCAR-4; 1.03 µM (active) with OVCAR-5; 1.95 µM (inactive) in the assay with RPMI-8226; 1.69 µM (inactive) in the assay on SF-295. For the same compound, the GI50 with SF-539 is 3.89 µM (inactive); with SK-MEL-2, 1.84 µM (inactive); in the assay with SK-MEL-5 it was 2.69 µM (inactive); in the assay on SW-620, 2.43 µM (inactive); in the assay with UACC-62, 1.99 µM (inactive); in the assay on UO-31, 3.68 µM (inactive).
In the case of `Cc1cc(CC(O)c2ccc(Cl)c(Cl)c2)nc(O)n1` (stereo unspecified), the GI50 with CAKI-1 was 21.7 µM (inactive); in the assay on HOP-62, 25.6 µM (inactive); in the assay on HOP-92 it was 18 µM (inactive); in the assay with M14 it was 32.8 µM (inactive); with NCI-H226, 26.9 µM (inactive); in the assay on NCI-H23, 27.5 µM (inactive). The GI50 is 20.2 µM (inactive) in the assay on NCI-H522; 48.9 µM (inactive) with OVCAR-4; 69 µM (inactive) with OVCAR-5; 71.9 µM (inactive) in the assay on RPMI-8226; 30.3 µM (inactive) in the assay with SF-295; 61.7 µM (inactive) in the assay with SK-MEL-2. Further, the GI50 is 57.4 µM (inactive) in the assay on SK-MEL-5, 36.1 µM (inactive) with SW-620, 50.9 µM (inactive) in the assay on UACC-62 and 54.1 µM (inactive) with UO-31.
